Key:
Assay in all cases: area under growth-rate inhibition curve (AUC GRI) (dimensionless (GR-based AUC)); higher = less growth inhibition
Settings in all cases: exposure time: 72 h; concentrations: 0.1, 1, 10 uM
[1] = tested on: BT474-LTR
Method in brief: (§1)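 Six breast cancer cell line models were used: two triple-negative lines, plus parental HER2+ lines and HER2+ lines resistant to a two-drug combination, each plated at an optimised log-phase density and treated with compound at 0.1, 1 or 10 µM for 72 h. After fixation in 4% paraformaldehyde, nuclei were stained with Hoechst 33342 or DAPI, imaged and counted. Growth was corrected using Day 0 plates, untreated Day 3 plates and DMSO controls, with 2 biological replicates. These corrected counts gave the area under the growth-rate inhibition curve.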

[2] = tested on: BT474-P
Method in brief: as §1

[3] = tested on: MDA-MB-231
Method in brief: as §1

[4] = tested on: MDA-MB-468
Method in brief: as §1

[5] = tested on: SKBR3-LTR
Method in brief: as §1

[6] = tested on: SKBR3-P
Method in brief: as §1

SMILES | area under growth-rate inhibition curve [1] | area under growth-rate inhibition curve [2] | area under growth-rate inhibition curve [3] | area under growth-rate inhibition curve [4] | area under growth-rate inhibition curve [5] | area under growth-rate inhibition curve [6]
C[C@H]1CNCCc2ccc(Cl)cc21.[Cl-].[H+] [Lorcaserin HCl] | 1.09 | 1.06 | 1.02 | 1.03 | 1.03 | 1.03
CN1CCN(C2=Nc3ccccc3Oc3ccc(Cl)cc32)CC1 [Loxapine] | 1.03 | 0.995 | 1.04 | 1.03 | 1.06 | 1.02
N#Cc1cc2cc(CN3CCC(Nc4ncnc5sc(CC(F)(F)F)cc45)CC3)ccc2[nH]1 [MI-136] | 0.906 | 0.833 | 0.931 | 0.834 | 1.01 | 0.895
C[C@]12N[C@H](Cc3ccccc31)c1ccccc12 [MK-801 (Dizocilpine)] | 1.09 | 1.03 | 1.03 | 1.05 | 1.06 | 0.998
Cc1cccc(C#Cc2ccccc2)n1 [MPEP] | 1.1 | 1.03 | 1.05 | 1.03 | 1.05 | 0.999
S=C=Nc1cccc(NC(=S)NCCCCNC(=S)Nc2cccc(N=C=S)c2)c1 [MRS 2578] | 1.08 | 1.02 | 1.02 | 1.03 | 1.07 | 1.02
CCCNS(=O)(=O)Nc1ncnc(OCCOc2ncc(Br)cn2)c1-c1ccc(Br)cc1 [Macitentan] | 1.01 | 0.957 | 1.02 | 1.02 | 1.02 | 1.02
CNCCCC12CCC(c3ccccc31)c1ccccc12.[Cl-].[H+] [Maprotiline HCl] | 1.02 | 0.984 | 0.967 | 0.96 | 1.02 | 0.982
Cc1cccc(C(C)c2c[nH]cn2)c1C.Cl (stereo unspecified) [Medetomidine HCl] | 0.982 | 0.995 | 1.01 | 1.02 | 0.995 | 1.03
CC(=O)O[C@]1(C(C)=O)CC[C@H]2[C@@H]3C[C@H](C)C4=CC(=O)CC[C@]4(C)[C@H]3CC[C@@]21C [Medroxyprogesterone acetate] | 1.02 | 0.945 | 1.03 | 1 | 1.01 | 0.953
CC(=O)O[C@]1(C(C)=O)CC[C@H]2[C@@H]3C=C(C)C4=CC(=O)CC[C@]4(C)[C@H]3CC[C@@]21C [Megestrol Acetate] | 1.09 | 0.978 | 1 | 1.01 | 1.09 | 0.968
CC12CC3CC(C)(C1)CC(N)(C3)C2.Cl [Memantine HCl] | 0.981 | 1 | 0.997 | 0.982 | 0.989 | 1.03
COc1ccc(CN(CCN(C)C)c2ccccn2)cc1.O=C(O)/C=C\C(=O)O [Mepyramine maleate] | 1.06 | 1.03 | 1.05 | 1.05 | 1.05 | 1.05
C[N+]1(C)C2CC(OC(=O)C(CO)c3ccccc3)CC1C1OC12.[Br-] (stereo unspecified) [Methscopolamine] | 1.1 | 1.05 | 1.03 | 1.04 | 1.04 | 1.02
CC[C@@H](CO)NC(=O)[C@@H]1C=C2c3cccc4[nH]cc(c34)C[C@H]2N(C)C1.O=C(O)/C=C\C(=O)O [Methylergometrine maleate] | 1.05 | 1.01 | 1.03 | 1.06 | 1.05 | 1.04
CCN(CC)CCNC(=O)c1cc(Cl)c(N)cc1OC.Cl [MetoclopraMide HCl] | 1.09 | 1.04 | 1.05 | 1.01 | 1.04 | 1.02
COCCc1ccc(OCC(O)CNC(C)C)cc1.O=C(O)C(O)C(O)C(=O)O (stereo unspecified) [Metoprolol Tartrate] | 1.01 | 0.987 | 1.01 | 0.98 | 0.997 | 0.999
CN1CCN2c3ccccc3Cc3ccccc3C2C1.[Cl-].[H+] (stereo unspecified) [Mianserin HCl] | 1.12 | 1.07 | 1.03 | 1.06 | 1.09 | 1.02
CC#C[C@]1(O)CC[C@H]2[C@@H]3CCC4=CC(=O)CCC4=C3[C@@H](c3ccc(N(C)C)cc3)C[C@@]21C [Mifepristone] | 1.02 | 1 | 1.03 | 0.989 | 0.998 | 0.962
Cc1[nH]c(=O)c(C#N)cc1-c1ccncc1 [Milrinone] | 1.05 | 1.03 | 1.04 | 1.03 | 1.07 | 1.02
Nc1nc(CC(=O)Nc2ccc(CCNCC(O)c3ccccc3)cc2)cs1 (stereo unspecified) [Mirabegron] | 1.11 | 1.04 | 1.02 | 1.01 | 1.07 | 1.02
CCOc1cc(N)c(Cl)cc1C(=O)NCC1CN(Cc2ccc(F)cc2)CCO1.O=C(O)CC(O)(CC(=O)O)C(=O)O (stereo unspecified) [Mosapride Citrate] | 1.09 | 1.04 | 1.03 | 1.02 | 1.02 | 1.01
CN[C@H](CC(=O)O)C(=O)O [NMDA (N-Methyl-D-aspartic acid)] | 1.09 | 1.08 | 1.04 | 1.04 | 1.08 | 1.07
CC(C)(Cc1ccc2ccccc2c1)NC[C@@H](O)COc1cccc(Cl)c1C#N [NPS-2143] | 0.815 | 0.808 | 0.874 | 0.817 | 0.794 | 0.833
COc1ccccc1N1CCN(CC(O)COc2cccc3ccccc23)CC1.[Cl-].[Cl-].[H+].[H+] (stereo unspecified) [Naftopidil DiHCl] | 1.02 | 0.978 | 1.02 | 0.995 | 1.05 | 0.983
COc1ccccc1N1CCN(CC(O)COc2cccc3ccccc23)CC1 (stereo unspecified) [Naftopidil] | 1.08 | 1.01 | 1.04 | 1.02 | 1.07 | 1

SMILES | area under growth-rate inhibition curve [1] | area under growth-rate inhibition curve [2] | area under growth-rate inhibition curve [3] | area under growth-rate inhibition curve [4] | area under growth-rate inhibition curve [5] | area under growth-rate inhibition curve [6]
C=CCN1CCC23c4c5ccc(O)c4OC2C(OCCOCCOCCOCCOCCOCCOCCOC)CCC3(O)C1C5 (stereo unspecified) [Naloxegol] | 0.997 | 1 | 0.991 | 1.02 | 1.01 | 1.01
C=CCN1CC[C@]23c4c5ccc(O)c4O[C@H]2C(=O)CC[C@@]3(O)[C@H]1C5.[Cl-].[H+] [Naloxone HCl] | 1.08 | 1.05 | 1.04 | 1.02 | 1.05 | 1.03
Cl.O=C1CC[C@@]2(O)[C@H]3Cc4ccc(O)c5c4[C@@]2(CCN3CC2CC2)[C@H]1O5 [Naltrexone HCl] | 1.09 | 1.05 | 1.03 | 1.04 | 1.06 | 1.05
Cl.c1ccc2c(CC3=NCCN3)cccc2c1 [Naphazoline HCl] | 1.11 | 1.04 | 1.05 | 1.03 | 1.07 | 1.02
CNS(=O)(=O)CCc1ccc2[nH]cc(C3CCN(C)CC3)c2c1.[Cl-].[H+] [Naratriptan] | 1.04 | 1.04 | 1.02 | 1.04 | 1.06 | 0.994
OC(CNCC(O)C1CCc2cc(F)ccc2O1)C1CCc2cc(F)ccc2O1.[Cl-].[H+] (stereo unspecified) [Nebivolol] | 0.88 | 0.882 | 0.874 | 0.805 | 0.853 | 0.938
CCCc1c2oc(C(=O)O)cc(=O)c2cc2c(=O)cc(C(=O)O)n(CC)c12 [Nedocromil] | 1.04 | 1.02 | 1.03 | 1.05 | 1.05 | 1.02
Cc1cccc(C)c1NC(=O)CN1CCCC1=O [Nefiracetam] | 1.06 | 1.05 | 1.02 | 1.03 | 1.03 | 1
Cl.NCc1cnc(S)n1C1CCc2c(F)cc(F)cc2C1 (stereo not drawn) [Nepicastat (SYN-117) HCl] | 1.08 | 1.03 | 1.01 | 1 | 1.07 | 1.02
O=C(O)c1cccnc1Nc1cccc(C(F)(F)F)c1 [Niflumic acid] | 1.07 | 1.01 | 1.03 | 1.03 | 1.04 | 1.01
CN/C(=C\[N+](=O)[O-])NCCSCc1csc(CN(C)C)n1 [Nizatidine] | 1.07 | 1.05 | 1.02 | 1.04 | 1.05 | 1
Cc1cc2c(s1)Nc1ccccc1N=C2N1CCN(C)CC1 [Olanzapine] | 1.08 | 1.02 | 1.01 | 1.03 | 1.06 | 0.97
CN(C)CC/C=C1\c2ccccc2COc2ccc(CC(=O)O)cc21.Cl [Olopatadine HCl] | 1.1 | 1.04 | 1.04 | 0.999 | 1.02 | 1.02
Cc1nccn1CC1CCc2c(c3ccccc3n2C)C1=O.[Cl-].[H+] (stereo unspecified) [Ondansetron HCl] | 1.08 | 1.05 | 1.03 | 1.02 | 1.02 | 1.03
Cc1ccccc1C(OCCN(C)C)c1ccccc1.O=C(O)CC(O)(CC(=O)O)C(=O)O (stereo unspecified) [Orphenadrine Citrate] | 1.06 | 1.03 | 1.02 | 1.04 | 1.07 | 0.995
CCCCCCCCOc1ccccc1C(=O)Nc1ccc(C(=O)OCC[N+](C)(CC)CC)cc1.[Br-] [Otilonium Bromide] | 1.07 | 0.939 | 1.04 | 0.947 | 1.01 | 1
CCN(CC)CC#CCOC(=O)C(O)(c1ccccc1)C1CCCCC1.[Cl-].[H+] (stereo unspecified) [Oxybutynin chloride] | 1.1 | 1.02 | 1.04 | 0.992 | 1.04 | 0.999
Cc1cc(C(C)(C)C)c(O)c(C)c1CC1=NCCN1.[Cl-].[H+] [Oxymetazoline hydrochloride] | 1.09 | 1.05 | 1.01 | 1.04 | 1.06 | 1.02
CC(C)Oc1ccc(-c2nc(-c3cccc4c3CC[C@@H]4NCCO)no2)cc1C#N [Ozanimod (RPC1063)] | 1 | 0.933 | 0.889 | 0.927 | 0.976 | 0.984
Cc1cc(CS(=O)(=O)c2ccccc2)cc(OCc2ccc(CN3CCC[C@@H]3CO)cc2)c1 [PF-543] | 1.01 | 0.97 | 1.01 | 0.99 | 1.07 | 1.03
Cc1nc2n(c(=O)c1CCN1CCC(c3noc4cc(F)ccc34)CC1)CCCC2O (stereo unspecified) [Paliperidone] | 1.02 | 0.98 | 1.05 | 1.05 | 1.06 | 1.02
CC(=O)OC1CC2CCC3C(CCC4(C)C3CC([N+]3(C)CCCCC3)C4OC(C)=O)C2(C)CC1[N+]1(C)CCCCC1.[Br-].[Br-] (stereo unspecified) [Pancuronium dibromide] | 1.06 | 1.01 | 1 | 1.01 | 0.978 | 0.989
Fc1ccc([C@@H]2CCNC[C@H]2COc2ccc3c(c2)OCO3)cc1.[Cl-].[H+] [Paroxetine HCl] | 0.927 | 0.931 | 0.965 | 0.912 | 0.927 | 0.955
NCCCCC1NC(=O)C(Cc2c[nH]c3ccccc23)NC(=O)C(c2ccccc2)NC(=O)C2CC(OC(=O)NCCN)CN2C(=O)C(Cc2ccccc2)NC(=O)C(Cc2ccc(OCc3ccccc3)cc2)NC1=O (stereo unspecified) [Pasireotide] | 1.04 | 1.02 | 1.03 | 1.03 | 1.05 | 1.03
Cc1cccn2c(=O)c(-c3nnn[n-]3)cnc12.[K+] [Pemirolast Potassium] | 1.05 | 1.04 | 1.05 | 1.04 | 1.05 | 1.03

— the supplement of paper PMC9763283
